These results are taken from patent US20180258123A1, “Suppressors of Premature Termination Codons as Therapeutics and Methods for Their Use” (The University of British Columbia, priority 2015, published 2018).

For series [1] the following is noted: cited from earlier work.
In series [2] the test system is HDQ-P1 cells, full-length p53. The experiment in a line: p53 read-through assay with steroids (western blotting, FIG. 4). It counts as cell-based, human. The method, then: HDQ-P1 cells were seeded at 100,000 cells per well of TC-treated 6-well plates. The next day, the medium was replaced with fresh medium containing compounds to be tested and were incubated for 48 to 96 h. The medium was removed by aspiration, cell monolayers were rinsed with 1 ml ice-cold PBS. Cells were lysed in 80 μl lysis buffer (20 mM Tris-HCl pH 7.5, 150 mM NaCl, 1 mM EDTA, 1 mM EGTA, 1% (v/v) Triton […], 2.5 mM sodium pyrophosphate, 1 mM beta-glycerophosphate supplemented with fresh 1 mM Na3VO4, 1 mM dithiothreitol and 1× complete protease inhibitor cocktail (Roche Molecular BiochemicalsTM)). Lysates were pre-cleared by centrifugation at 18,000 g for 15 min at 4° C. Supernatants were collected, protein was quantitated using the Bradford assay and lysates were adjusted to 1 mg/ml protein. Capillary electrophoresis and western analysis conditions were carried out with manufacturer's reagents according to the user manual (ProteinSimple WESTM). Briefly, 5.6 μl of cell lysate was mixed with 1.4 μl fluorescent master mix and heated at 95° C. for 5 min. The samples, blocking reagent, wash buffer, DO-1 p53 antibody (0.5 μg/ml) and vinculin antibody (1:2000, R&D clone 728526), secondary antibody and chemiluminescent substrate were dispensed into the microplate provided by the manufacturer. […] The data was analyzed with inbuilt CompassTM software (ProteinsimpleTM). […]

The nature of series [3]: Toxicity observed in the in vivo read-through study. The following applies: 400 mg/kg intraperitoneal; mice sacrificed shortly after administration.
Method: Methods for FIG. 8: Two million NCI-H1299 human non-small cell lung carcinoma cells stably expressing a TP53 expression construct bearing the R213X (TGA) nonsense mutation were implanted subcutaneously on the lower back of immunocompromised NRG (NOD-Rag1^null IL2rg^null) mice. […] 48 hours after the last injection, the mice were sacrificed and the amounts of truncated p53 and full-length p53 were determined by western analysis. […] Vinculin was used as a protein loading control.

Take `CN[C@@H]1[C@@H](O)[C@@H](O[C@@H]2[C@@H](O)[C@H](O[C@H]3O[C@H]([C@@H](C)N)CC[C@H]3N)[C@@H](N)C[C@H]2N)OC[C@]1(C)O` [Gentamicin C2]: in series [1] (Kohlhepp S. J. et al. 1984), the “nephrotoxicity of the major gentamicins” value was “nephrotoxicity was caused mainly by C2”.

`CC(=O)O[C@]1(C(C)=O)CC[C@H]2[C@@H]3C[C@H](C)C4=CC(=O)CC[C@]4(C)[C@H]3CC[C@@]21C` [Medroxy pro, Medroxyprogesterone acetate]: the “read-through activity of steroid alone” value in series [2] is “no read-through activity”.

Consider Gentamicin [reference compound], for which the nephrotoxicity and ototoxicity entry in series [1] (in vivo) is “nephrotoxic and ototoxic”. For the same compound, in series [3], the toxicity result is listed as “induced acute toxicity”.
